Assays:
[1] = target: T1, human B1R (bradykinin receptor 1) (Homo sapiens, UniProt P46663); assay: FLIPR Ca2+ assay (Fluo-4) on CHO K1 cells stably transfected with the human B1R gene (hB1R cells): % inhibition at 10 μM / IC50, agonist Lys-Des-Arg9-bradykinin; type: cell-based; conditions: CHO-K1, human B1R
T1 construct: expressed in transfected cells; host or cells: CHO K1 cells
T1 sequence (P46663 1-353): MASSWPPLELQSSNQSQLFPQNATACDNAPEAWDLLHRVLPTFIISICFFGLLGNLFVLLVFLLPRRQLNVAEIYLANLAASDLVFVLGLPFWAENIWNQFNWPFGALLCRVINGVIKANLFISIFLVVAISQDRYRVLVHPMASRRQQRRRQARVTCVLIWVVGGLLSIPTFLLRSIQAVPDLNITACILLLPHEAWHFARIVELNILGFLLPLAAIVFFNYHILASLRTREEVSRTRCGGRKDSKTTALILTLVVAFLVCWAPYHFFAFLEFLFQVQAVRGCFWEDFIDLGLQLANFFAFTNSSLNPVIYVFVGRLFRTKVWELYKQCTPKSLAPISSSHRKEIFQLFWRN
Summary of the method: (§1)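 Antagonism is measured as the drop in peak Fluo-4 Ca2+ signal when the EC80 agonist follows 10–20 min compound exposure. The single-point screen uses 10 μM; IC50 uses several concentrations. Values are given as % of maximal achievable inhibition.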

[2] = target: T2, rat B1R (bradykinin receptor 1) (Rattus norvegicus, UniProt P97583); assay: FLIPR Ca2+ assay (Fluo-4) on CHO K1 cells stably transfected with the B1R gene of the rat (rB1R cells): % inhibition at 10 μM / IC50, agonist Des-Arg9-bradykinin; type: cell-based; conditions: CHO-K1, rat B1R
T2 construct: expressed in transfected cells; host or cells: CHO K1 cells
T2 sequence (P97583 1-337): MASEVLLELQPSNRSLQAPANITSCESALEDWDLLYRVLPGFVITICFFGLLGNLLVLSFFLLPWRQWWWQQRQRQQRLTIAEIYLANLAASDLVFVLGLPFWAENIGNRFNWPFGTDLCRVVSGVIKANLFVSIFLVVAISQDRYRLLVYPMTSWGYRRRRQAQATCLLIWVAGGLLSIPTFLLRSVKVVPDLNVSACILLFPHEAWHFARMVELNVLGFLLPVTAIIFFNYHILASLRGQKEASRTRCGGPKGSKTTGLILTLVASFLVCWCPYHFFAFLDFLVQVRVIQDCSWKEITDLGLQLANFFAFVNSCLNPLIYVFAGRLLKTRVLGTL
Summary of the method: as §1

Row | Structure (SMILES) | inhibition at 10 µM [1] [%] | inhibition at 10 µM [2] [%]
1 | O=C(c1ccc2c(c1)C(N(C(=O)c1ccccc1Cl)C1CC1)CC2)N1CCC2(CC1)CCN(c1ccncc1)CC2 (centres unmarked) [Ind_CC-113, 2-chloro-N-cyclopropyl-N-[6-(9-pyridin-4-yl-3,9-diazaspiro[5.5]undecane-3-carbonyl)-2,3-dihydro-1H-inden-1-yl]-benzamide] | 98 | 100
2 | CC1(C)CC(NC(=O)c2cccc(Cl)c2Cl)c2cc(C(=O)N3CCC4(CC3)CCN(c3ccncc3)CC4)ccc21 (centres unmarked) [IND_CC-283, 2,3-Dichloro-N-[3,3-dimethyl-6-(3-pyridin-4-yl-3,9-diazaspiro[5.5]undecane-9-carbonyl)-1,2-dihydro-inden-1-yl]-benzamide] | 96 | 107
3 | O=C(N[C@@H]1CCc2ccc(C(=O)N3CCC4(CCN(c5ccncc5)CC4)C3)cc21)c1c(Cl)cccc1C(F)(F)F [Example H-76, 2-Chloro-N-[(1R)-6-(8-pyridin-4-yl-3,8-diazaspiro[4.5]decane-3-carbonyl)-2,3-dihydro-1H-inden-1-yl]-6-(trifluoromethyl)-benzamide] | 100 | 102
4 | O=C(NC1CCc2ccc(C(=O)N3CCC4(CC3)CCN(c3ccc(F)cc3)CC4)cc21)c1sccc1Cl (centres unmarked) [Ind_CC-103, 3-chloro-N-[6-[9-(4-fluorophenyl)-3,9-diazaspiro[5.5]undecane-3-carbonyl]-2,3-dihydro-1H-inden-1-yl]-thiophene-2-carboxylic acid amide] | 93 | 62
5 | O=C(NC1CCc2ccc(C(=O)N3CCC4(CC3)CCN(c3ccncc3)C4)cc21)c1cc(Cl)ccc1Cl (centres unmarked) [IND_CC-208, 2,5-Dichloro-N-[6-(2-pyridin-4-yl-2,8-diazaspiro[4.5]decane-8-carbonyl)-2,3-dihydro-1H-inden-1-yl]-benzamide] | 99 | 100
6 | Cc1cc(OC(F)(F)F)ccc1C(=O)N[C@@H]1CCc2ccc(C(=O)N3CCC4(CC3)CCN(c3ccncc3)C4)cc21 [Example H-75, 2-Methyl-N-[(1R)-6-(3-pyridin-4-yl-3,8-diazaspiro[4.5]decane-8-carbonyl)-2,3-dihydro-1H-inden-1-yl]-4-(trifluoromethyloxy)-benzamide] | 29 | 64
7 | O=C(NC1CCc2ccc(C(=O)N3CCC4(CC3)CCN(c3ccc(C(F)(F)F)cc3)CC4)cc21)c1cc(Cl)ccc1Cl (centres unmarked) [IND_CC-209, 2,5-Dichloro-N-[6-[9-[4-(trifluoromethyl)-phenyl]-3,9-diazaspiro[5.5]undecane-3-carbonyl]-2,3-dihydro-1H-inden-1-yl]-benzamide] | 20 | 102

The next lines start with the values.

Row | inhibition at 10 µM [1] [%] | inhibition at 10 µM [2] [%] | Structure (SMILES)
8 | 99 | 103 | O=C(Cc1ccccc1Cl)N[C@@H]1CCc2ccc(C(=O)N3CCC4(CCN(c5ccncc5)CC4)C3)cc21 [Example H-151, 2-(2-Chlorophenyl)-N-[(1R)-6-(8-pyridin-4-yl-3,8-diazaspiro[4.5]decane-3-carbonyl)-2,3-dihydro-1H-inden-1-yl]-acetamide]
9 | 98 | 103 | O=C(c1ccc2c(c1)[C@H](NS(=O)(=O)c1cc(Cl)ccc1Cl)CC2)N1CCC2(CCN(c3ccncc3)CC2)C1 [Example H-142, 2,5-Dichloro-N-[(1R)-6-(8-pyridin-4-yl-3,8-diazaspiro[4.5]decane-3-carbonyl)-2,3-dihydro-1H-inden-1-yl]-benzenesulfonic acid amide]
10 | 99 | 103 | Cc1ccc2n1C(=O)N([C@@H]1CCc3ccc(C(=O)N4CCC5(CCN(c6ccncc6)CC5)C4)cc31)C2 [Example H-134, 5-Methyl-2-[(1R)-6-(8-pyridin-4-yl-3,8-diazaspiro[4.5]decane-3-carbonyl)-2,3-dihydro-1H-inden-1-yl]-1,2-dihydro-pyrrolo[2.1-e]imidazol-3-one]

Source: patent US8455475B2 (Gruenenthal GmbH, priority 2009, dated 2013)
